# Target: T1, MR (Homo sapiens, UniProt P08235)
# T1 construct: expressed in transfected cells; host or cells: Huh7 human liver cells (ATCC), transient transfection with FuGENE 6
# T1 sequence (P08235 726-964 limits assumed): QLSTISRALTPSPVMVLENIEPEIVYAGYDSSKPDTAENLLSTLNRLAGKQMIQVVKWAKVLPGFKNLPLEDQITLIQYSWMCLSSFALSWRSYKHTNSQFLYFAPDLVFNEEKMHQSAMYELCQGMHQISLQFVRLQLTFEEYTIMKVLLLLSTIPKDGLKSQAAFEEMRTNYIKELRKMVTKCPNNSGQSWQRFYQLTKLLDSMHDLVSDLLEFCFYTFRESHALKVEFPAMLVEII
# Experiment: Cell-based reporter assay (Gal4-MR-LBD luciferase, antagonist mode)
# Settings: not given
# Description: To measure the ability of test compound in the present invention to modulate the activity of MR (agonize, antagonize, partially agonize, partially antagonize), bioassays were performed that measured the modulation of reporter gene expression. Cells were transiently transfected with a luciferase reporter gene under the control of a Gal4 response element (Gal4-RE-luc) and a plasmid containing the Gal4 DNA binding domain fused to the MR ligand binding domain (Gal4-MR-LBD). Agonists can bind to and activate the MR-LBD, which activates the expression of the luciferase reporter gene through interaction with the Gal4 response element. […] Antagonists can compete for binding to the NHR-LBD and decrease the agonist-induced transcriptional activity of the reporter gene. Therefore, measurement of luciferase activity allowed quantitative determinations of the reporter transcription in the presence of either agonists or competitive antagonists.
# The final concentration of DMSO in the test plate was 0.5%. Following an overnight incubation with compound, 25 μL of Steady-Glow™ lysis buffer with luciferase substrate (Promega Corporation, E2550) was added directly to the cells. After a 30-minute incubation to completely lyse the cells, the microplates were counted in an Envision™ Multilabel Reader (Perkin Elmer) in single photon counting mode.
row,Compound,IC50 [µM]
1,"C[C@@H]1CN(c2ccc3ccc(=O)[nH]c3c2)[C@H](c2ccccc2)CO1 [Example 59, 7-((2R,5R)-2-methyl-5-phenylmorpholino)quinolin-2(1H)-one]",0.703
2,"C[C@@H]1CN(c2cc3c(cn2)OCC(=O)N3)[C@H](c2ccc(F)cc2)CO1 [Example 61, 7-((2R,5R)-5-(4-fluorophenyl)-2-methylmorpholino)-1H-pyrido[3,4-b][1,4]oxazin-2(3H)-one]",0.646
3,"O=C1COc2ccc(N3CCOCC34CCc3ccccc34)nc2N1 (stereo not drawn) [Example 36, 6-(2,3-dihydrospiro[indene-1,3′-morpholin]-4′-yl)-2H-pyrido[3,2-b][1,4]oxazin-3(4H)-one]",1.74
4,"C[C@H]1CN(c2ncc3c(n2)NC(=O)CO3)[C@@H](c2ccccc2Cl)CO1 (racemic) [Example 64, (±)-2-(cis-5-(2-chlorophenyl)-2-methylmorpholino)-6H-pyrimido[5,4-b][1,4]oxazin-7(8H)-one]",0.449
5,"C[C@@H]1CN(c2ccc3c(n2)NC(=O)CO3)[C@H](C)CO1 [Example 71, 6-((2R,5R)-2,5-dimethylmorpholino)-2H-pyrido[3,2-b][1,4]oxazin-3(4H)-one]",1.93
6,"O=C1COc2ccc(N3CCOC[C@H]3c3ccccc3)cc2N1 [Example 21, (R)-6-(3-phenylmorpholino)-2H-benzo[b][1,4]oxazin-3(4H)-one]",0.583
7,"C[C@H]1CN(c2cc3c(cn2)OCC(=O)N3)[C@@H](c2ccccc2Cl)CO1 (racemic) [Example 65, (±)-7-(cis-5-(2-chlorophenyl)-2-methylmorpholino)-1H-pyrido[3,4-b][1,4]oxazin-2(3H)-one]",0.631
8,"C[C@@H]1CN(c2cccc(NS(C)(=O)=O)n2)[C@H](c2ccccc2)CO1 [Example 27, N-(6-((2R,5R)-2-methyl-5-phenylmorpholino)pyridin-2-yl)methanesulfonamide]",1.23
9,"C[C@H]1CN(c2ccc3c(n2)NC(=O)CO3)CCO1 (single isomer, unassigned) [Example 18]",2.71
10,"CC1CN(c2ccc3c(n2)NC(=O)CO3)CCO1 (racemic) [Example 17, 6-(2-methylmorpholino)-2H-pyrido[3,2-b][1,4]oxazin-3(4H)-one]",3.05
11,"C[C@@H]1CN(c2cc3c(cn2)OCC(=O)N3)[C@H](c2ccccc2)CO1 [Example 46, 7-((2R,5R)-2-methyl-5-phenylmorpholino)-1H-pyrido[3,4-b][1,4]oxazin-2(3H)-one]",0.252
12,"C[C@H]1CN(c2ccc3c(n2)NC(=O)CO3)[C@@H](c2ccccc2F)CO1 (racemic) [Example 7, (±)-6-(cis-5-(2-fluorophenyl)-2-methylmorpholino)-2H-pyrido[3,2-b][1,4]oxazin-3(4H)-one]",0.0636
13,"C[C@@H]1CN(c2ccc3ncc(=O)[nH]c3c2)[C@H](c2ccccc2)CO1 [Example 3, 7-((2R,5R)-2-methyl-5-phenylmorpholino)quinoxalin-2(1H)-one]",0.157
14,"O=C1COc2ccc(N3CCOC(c4ccccc4)C3c3ccccc3)cc2N1 (stereo not drawn) [Example 75, 6-(2,3-diphenylmorpholino)-2H-benzo[b][1,4]oxazin-3(4H)-one]",3.08
15,"O=C1COc2ccc(N3CCO[C@H]4Cc5ccccc5[C@H]43)nc2N1 [Example 20, 6-((4aR,9aS)-2,3,9,9a-tetrahydroindeno[2,1-b][1,4]oxazin-4(4aH)-yl)-2H-pyrido[3,2-b][1,4]oxazin-3(4H)-one]",3
16,"C[C@H]1CN(c2ccc3c(n2)NC(=O)CO3)[C@@H]2c3ccccc3C[C@@H]2O1 (single isomer, unassigned) [Example 24]",1.77
17,"O=C1COc2ccc(N3C[C@@H](CF)OC[C@H]3c3ccccc3)nc2N1 [Example 39, 6-((2S,5R)-2-(fluoromethyl)-5-phenylmorpholino)-2H-pyrido[3,2-b][1,4]oxazin-3(4H)-one]",0.0867
18,"C[C@@H]1CN(c2ccc3c(c2)NC(=O)CS3)[C@H](c2ccccc2)CO1 [Example 4, 6-((2R,5R)-2-methyl-5-phenylmorpholino)-2H-benzo[b][1,4]thiazin-3(4H)-one]",0.306
19,"C[C@@H]1CN(c2ccc3c(n2)NCCO3)[C@H](c2ccccc2)CO1 [Example 6, 6-[(2R,5R)-2-methyl-5-phenylmorpholin-4-yl]-3,4-dihydro-2H-pyrido[3,2-b][1,4]oxazine]",0.977

row,Compound,IC50 [µM]
1,"O=C1COc2ccc(N3CCOC4(CCCc5ccccc54)C3)cc2N1 (stereo not drawn) [Example 72, 6-(3′,4′-dihydro-2′H-spiro[morpholine-2,1′-naphthalene]-4-yl)-2H-benzo[b][1,4]oxazin-3(4H)-one]",8.75
2,"Cc1ccc(C2(C)CN(c3ccc4c(c3)NC(=O)CO4)CCO2)cc1 (stereo not drawn) [Example 74, 6-(2-methyl-2-p-tolylmorpholino)-2H-benzo[b][1,4]oxazin-3(4H)-one]",3.42
3,"C[C@@H]1CN(c2ccc3c(n2)NC(=O)CO3)C[C@@H](C)O1 [Example 54, 6-((2R,6R)-2,6-dimethylmorpholino)-2H-pyrido[3,2-b][1,4]oxazin-3(4H)-one]",2.8
4,"C[C@@H]1CN(c2ccc3c(n2)NC(=O)C(F)(F)O3)[C@H](c2ccccc2)CO1 [Example 30, 2,2-difluoro-6-((2R,5R)-2-methyl-5-phenylmorpholino)-2H-pyrido[3,2-b][1,4]oxazin-3(4H)-one]",9.56
5,"C[C@@H]1CN(c2ccc3c(n2)NC(=O)CO3)[C@H](c2ccccc2)[C@H](C)O1 [Example 69, 6-((2S,3R,6R)-2,6-dimethyl-3-phenylmorpholino)-2H-pyrido[3,2-b][1,4]oxazin-3(4H)-one]",0.204
6,"C[C@@H]1CN(c2cc3c(cn2)OCC(=O)N3)[C@H](c2ccccc2)[C@H](C)O1 [Example 43, 7-((2S,3R,6R)-2,6-dimethyl-3-phenylmorpholino)-1H-pyrido[3,4-b][1,4]oxazin-2(3H)-one]",0.395
7,"C[C@@H]1CN(c2ccc3c(n2)NC(=O)CO3)C[C@H](C)O1 [Example 25, 6-(cis-2,6-dimethylmorpholino)-2H-pyrido[3,2-b][1,4]oxazin-3(4H)-one]",0.798
8,"CC1(C)OCCN(c2ccc3c(n2)NC(=O)CO3)C1c1ccccc1 (stereo not drawn) [Example 53, 6-(2,2-dimethyl-3-phenylmorpholino)-2H-pyrido[3,2-b][1,4]oxazin-3(4H)-one]",7.45
9,"CC[C@@H]1CN(c2ccc3c(n2)NC(=O)CO3)C[C@H](CC)O1 [Example 57, 6-(cis-2,6-diethylmorpholino)-2H-pyrido[3,2-b][1,4]oxazin-3(4H)-one]",4.69
10,"O=C1COc2ccc(N3CCOC[C@H]3c3ccccc3)nc2N1 [Example 16, (R)-6-(3-phenylmorpholino)-2H-pyrido[3,2-b][1,4]oxazin-3(4H)-one]",1.97
11,"C[C@H]1CN(c2ncc3c(n2)NC(=O)CO3)[C@@H](c2ccccc2F)CO1 (racemic) [Example 34, (±)-2-(cis-5-(2-fluorophenyl)-2-methylmorpholino)-6H-pyrimido[5,4-b][1,4]oxazin-7(8H)-one]",0.146
12,"O=C1COc2cnc(N3C[C@@H](C4CC4)OC[C@H]3c3ccccc3)nc2N1 [Example 44, 2-((2R,5R)-2-cyclopropyl-5-phenylmorpholino)-6H-pyrimido[5,4-b][1,4]oxazin-7(8H)-one]",1.23
13,"C[C@@H]1CN(c2ccc3c(n2)NC(=O)CO3)CCO1 (single isomer, unassigned) [Example 19]",5.61
14,"C[C@@H]1CN(c2cc3c(cn2)OCC(=O)N3)[C@H](c2ccccc2F)CO1 (single isomer, unassigned) [Example 33]",0.0539
15,"C[C@@H]1CN(c2ncc3c(n2)NC(=O)CO3)[C@H](c2ccccc2)[C@H](C)O1 [Example 42, 2-((2S,3R,6R)-2,6-dimethyl-3-phenylmorpholino)-6H-pyrimido[5,4-b][1,4]oxazin-7(8H)-one]",0.527
16,"C[C@@H]1CN(c2ccc3c(n2)NC(=O)CO3)[C@H](c2ccc(F)cc2F)CO1 [Example 52, 6-((2R,5R)-5-(2,4-difluorophenyl)-2-methylmorpholino)-2H-pyrido[3,2-b][1,4]oxazin-3(4H)-one]",0.278
17,"C[C@@H]1CN(c2ncc3c(n2)NC(=O)CO3)[C@H](c2ccccc2)CO1 [Example 2, 2-((2R,5R)-2-methyl-5-phenylmorpholino)-6H-pyrimido[5,4-b][1,4]oxazin-7(8H)-one]",0.266
18,"C[C@@H]1CN(c2ncc3c(n2)NC(=O)CO3)[C@H](c2ccc(F)cc2)CO1 [Example 55, 2-((2R,5R)-5-(4-fluorophenyl)-2-methylmorpholino)-6H-pyrimido[5,4-b][1,4]oxazin-7(8H)-one]",0.485

# Same assay, conditions: antagonist mode; decrease of EC80 aldosterone signal by 50%; Huh7 cells transfected with Gal4-MR-LBD and Gal4-RE-luc
row,Compound,IC50 [µM]
1,"(±)-2-(cis-5-(2-methoxyphenyl)-2-methylmorpholino)-6H-pyrimido[5,4-b][1,4]oxazin-7(8H)-one [Example 56]",5.33
2,"6-((2S,5R)-2-(methoxymethyl)-5-phenylmorpholino)-2H-pyrido[3,2-b][1,4]oxazin-3(4H)-one [Example 49]",0.358

# Reference: patent US20110281854A1, “MORPHOLINE COMPOUNDS” (Pfizer Inc, priority 2010, published 2011)
